Data from patent US20260364056A1, “METHODS OF TREATMENT OF NON-PANCREATIC GASTROINTESTINAL CANCERS” (IONCTURA bv, priority 2023, published 2026).

Columns and labels:
HT-29 cells [1] = assay: Wound healing assay; format: cell-based, human; conditions: 9 and 12 μM, serum-free
Description: (§1) Cells were seeded in a 12-well plate in 10% FBS medium and grown to reach a 80-90% confluence. Then, a scratch was made on the cell monolayer by using a p200 pipette tip. The plate was washed with sterile PBS to remove the debris and on the outer bottom of the plate were created markings with a tip marker, used as reference points. Each cell line was incubated with medium without FBS and containing increasing concentrations of Compound 1 (1-3-9-12 μM). Images were acquired at 0, 24 and 48 h by using a confocal microscope Nikon Eclipse Ti2 in bright field microscope and analysed with image-J. Image-J software was used to measure the scratched area. Cell migratory ability of wound-healing was assessed using the following formula: [(wound area at 0 h)−(wound area at indicated time)]/(wound area at 0 h).
(§2) Images were taken at time 0, 24 h and 48 h and cell migration into the cell-free region (outlined) was quantified.
(§3) Tumor progression is characterized by an enhanced cell motility and invasiveness. To expand upon the knowledge of the effects of Compound 1 on HLE, KKU-m213 and HT-29 cells, their migratory activity was assessed when treated with Compound 1 by using both, a wound healing and a transwell migration assay. Cells were seeded in a 12-well plate and, when a confluent monolayer was reached, an artificial gap was generated between the cells using a pipette tip. […]

HLE cells [2] = assay: Wound healing assay; format: cell-based; conditions: Homo sapiens, serum-free, read-out: inhibition of cell migration
Description: as §1, §2, §3

KKU-M213 cells [3] = assay: Wound healing assay; format: cell-based; conditions: Homo sapiens, serum-free, respect to control, after 24 h and 48 h, p<0.05, read-out: reduction in wound closure
Description: as §1, §2, §3

HLF cells = assay: Cell viability assay (crystal violet); format: cell-based
Description: (§4) Human colorectal adenocarcinoma HT29 and Caco-2 cells, hepatocellular carcinoma HLE cells, cholangiocarcinoma RBE and KKU-M213 cells were purchased from the American […] Culture Collection (ATCC, Manassas, VA, USA). The hepatocellular carcinoma cell line HLF was purchased from JCRB Cell Bank (Japan). All cell lines were cultured in Dulbecco's Modified Eagle Medium (DMEM) supplemented with 10% foetal bovine serum (FBS), 1 mM pyruvate, 25 mM HEPES, 100 U/mL penicillin-streptomycin (all from Thermo Fisher Scientific, Waltham, MA, USA), and maintained in a humidified atmosphere at 37 °C containing 5% CO2. The medium was changed every three days. Oleoyl-LPA was purchased from Avanti Polar Lipids (Birmingham, AL).
(§5) Cells were seeded in 96-well plates at a density of 2000 cells/well in 10% FBS supplemented medium. After 24 h, medium was removed, the cells washed with PBS and cultured in the presence or absence of FBS and of different concentrations of Compound land LPA. After the time set for the experiment, the cells were fixed with a 4% PFA solution and stained with 0.02% crystal violet for 10 min. Subsequently the plates have been washed with water to remove excess dye. The cell-bound dye was redissolved in 1% SDS and the optical density was measured at λ=570 with a iMark™ Microplate Absorbance Reader (Bio-rad).
(§6) FIGS. 2A and 2B show the effect of Compound 1 on cell proliferation in the absence of FBS and in the presence of 10% FBS. […] Cells were grown in serum free culture medium or in presence of 10% FBS and incubated with increasing Compound 1 concentrations or with DMSO (control cells) for 24, 48 and 72 hours. After fixation, proliferation was assessed by crystal violet staining method. *P<0.05.
To evaluate the anti-proliferative/cytotoxic effects of Compound 1, six different cancer tumour cell lines were treated developed from cholangiocarcinoma (CCA), hepatocellular carcinoma (HCC) and colorectal cancer (CRC), with increasing concentration of the Compound 1 ranging from 10 μM up to 50 μM and at different times of incubation. […]

Caco2 cells = assay: Cell viability assay (crystal violet); format: cell-based, human
Description: as §4, §5, §6
(§7) To evaluate the anti-proliferative/cytotoxic effects of Compound 1, six different cancer tumour cell lines were treated developed from cholangiocarcinoma (CCA), hepatocellular carcinoma (HCC) and colorectal cancer (CRC), with increasing concentration of the Compound 1 ranging from 10 μM up to 50 μM and at different times of incubation. After 24, 48 and 72 hours of drug treatment, attached cells were fixed and stained with crystal violet dye. This method is used to evaluate the effect of chemotherapeutics or other anti-cancer drugs on cell survival and proliferation. In the first experiments, Compound 1 was administered to cells in culture medium supplemented with 10% FBS. […] To test the hypothesis that the presence of serum, and consequently the endogenous LPA, could interfere with the Compound 1 activity, all the cancer cells were treated with Compound 1 at concentration ranging from 1 μM up to 12 μM, in the presence or absence of 10% FBS.

HLE cells [4] = assay: Cell viability assay (crystal violet); format: cell-based, human
Description: as §4, §5, §6, §7

KKU-M213 cells [5] = assay: Cell viability assay (crystal violet); format: cell-based, human
Description: as §4, §5, §6, §7

RBE cells = assay: Cell viability assay (crystal violet); format: cell-based, human
Description: as §4, §5, §6, §7

HT-29 cells [6] = assay: Cell viability assay (crystal violet); format: cell-based, human
Description: as §4, §5, §6, §7

breast cancer = conditions: in vivo; cited from earlier work
[7] = 1 μM up to 12 μM, 10% FBS, 24, 48 and 72 h
[8] = 3 to 12 μM, absence of FBS, evident after 48 h, stronger after 72 h
[9] = 30 to 50 μM, medium with 10% FBS

With `C[C@H](NC(=O)CCc1nc2cccnc2n1Cc1ccc(OC(F)(F)F)cc1)c1ccc(Cl)cc1` [Compound 1, N-[(S)-1-(4-chloro-phenyl)-ethyl]-3-[3-(4-trifluoromethoxy-benzyl)-3H-imidazo[4,5-b]pyridin-2-yl]-propionamide] the “inhibition of wound closure” value (HT-29 cells [1]) was “significantly (p<0.05) inhibited wound closure”, the inhibition at 3 µM (HLE cells [2]) was 40% and the inhibition at 9 µM (KKU-M213 cells [3]) was roughly 50%. The “effect on cell proliferation” value (HLF cells; [7]) was “generally the same as the control”, the “cytotoxic effect / inhibition of cell proliferation” value (shortened to “cytotoxic effect / inhibition”) (HLF cells; [8]) was “significant (p<0.05) cytotoxic effect in a dose-dependent manner” and the cytotoxic effect (HLF cells; [9]) was “significant (p<0.05) cytotoxic effect”. For the same compound, the “effect on cell proliferation” value (Caco2 cells; [7]) was “generally the same as the control”, the “cytotoxic effect / inhibition” value (Caco2 cells; [8]) was “significant (p<0.05) cytotoxic effect in a dose-dependent manner” and the cytotoxic effect (Caco2 cells; [9]) was “significant (p<0.05) cytotoxic effect”. For the same compound, the “effect on cell proliferation” value (HLE cells [4]; [7]) was “generally the same as the control”, the “effect of FBS on activity of Compound 1” value (HLE cells [4]; 9 μM, 72 h, 5% FBS) was “completely abolishing the Compound 1 effect” and the “cell inhibition compared to control” value (HLE cells [4]; 9 μM, 72 h, no FBS) was “clear difference in the cell inhibition compared to the control”. For the same compound, the “effect of FBS on activity of Compound 1” value (HLE cells [4]; 9 μM, 72 h, starting at 2% FBS) was “significantly (p<0.05) reduced the activity of Compound 1”, the “cytotoxic effect / inhibition” value (HLE cells [4]; [8]) was “significant (p<0.05) cytotoxic effect in a dose-dependent manner” and the cytotoxic effect (HLE cells [4]; [9]) was “significant (p<0.05) cytotoxic effect”. For the same compound, the “effect on cell proliferation” value (KKU-M213 cells [5]; [7]) was “generally the same as the control”, the “effect of FBS on activity of Compound 1” value (KKU-M213 cells [5]; 9 μM, 72 h, 5% FBS) was “completely abolishing the Compound 1 effect” and the “cell inhibition compared to control” value (KKU-M213 cells [5]; 9 μM, 72 h, no FBS) was “clear difference in the cell inhibition compared to the control”. The “effect of FBS on activity of Compound 1” value (KKU-M213 cells [5]; 9 μM, 72 h, starting at 2% FBS) was “significantly (p<0.05) reduced the activity of Compound 1”, the “cytotoxic effect / inhibition” value (KKU-M213 cells [5]; [8]) was “significant (p<0.05) cytotoxic effect in a dose-dependent manner” and the cytotoxic effect (KKU-M213 cells [5]; [9]) was “significant (p<0.05) cytotoxic effect”. For the same compound, the “effect on cell proliferation” value (RBE cells; [7]) was “generally the same as the control”, the “cytotoxic effect / inhibition” value (RBE cells; [8]) was “significant (p<0.05) cytotoxic effect in a dose-dependent manner” and the cytotoxic effect (RBE cells; [9]) was “significant (p<0.05) cytotoxic effect”. For the same compound, the “effect on cell proliferation” value (HT-29 cells [6]; [7]) was “generally the same as the control”, the “effect of FBS on activity of Compound 1” value (HT-29 cells [6]; 9 μM, 72 h, 5% FBS) was “completely abolishing the Compound 1 effect” and the “cell inhibition compared to control” value (HT-29 cells [6]; 9 μM, 72 h, no FBS) was “clear difference in the cell inhibition compared to the control”. The “effect of FBS on activity of Compound 1” value (HT-29 cells [6]; 9 μM, 72 h, starting at 2% FBS) was “significantly (p<0.05) reduced the activity of Compound 1”, the “cytotoxic effect / inhibition” value (HT-29 cells [6]; [8]) was “significant (p<0.05) cytotoxic effect in a dose-dependent manner” and the cytotoxic effect (HT-29 cells [6]; [9]) was “significant (p<0.05) cytotoxic effect”. For the same compound, the “dissemination of primary tumors” value (breast cancer) was “inhibit the dissemination of primary tumors”.
